Test results from patent US12589156B2, “Benzimidazole and benzimidazolone based protac compounds for the targeted degradation of leucine rich repeat kinase 2 (LRRK2)” (Arvinas Operations, Inc., priority 2023, dated 2026).

Target: T1, WT LRRK2 (Homo sapiens, UniProt Q5S007)
T1 construct: endogenous in cells; host or cells: HEK293 (endogenous LRRK2 gene knock-in tagged with HiBit; stably expressing CMV-driven firefly luciferase)
Assay: LRRK2 HiBit degradation assay (Nano-Glo Dual Luciferase) in HEK293 cells with HiBit-tagged endogenous LRRK2
Format: cell-based
Conditions: for Dmax / WT LRRK2 **Dmax (%): maximal degradation
Method in brief: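 HEK293 cells carrying endogenous C-terminally HiBit-tagged LRRK2 and stably expressing CMV-driven firefly luciferase were treated for 24 h at 37° C with an 11-point 1:3 series from a 1 μM final top concentration. Nano-Glo Dual Luciferase read LRRK2-HiBit against firefly signal. Alamar Blue gave viability, and signals were normalized to DMSO median before curve fitting.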

[1] = Table 2, HiBit-tagged LRRK2 in HEK293 cells, 24 hours treatment, starting concentration 1 μM
[2] = HEK293, Table 2, HiBit-tagged LRRK2 in HEK293 cells, 24 hours treatment
[3] = Table 2, HiBit-tagged LRRK2 in HEK293 cells, 24 hours treatment
[4] = HEK293, Table 3, comparison with direct comparators
[5] = Table 3, comparison with direct comparators, HiBit-tagged LRRK2 in HEK293 cells, 24 hours treatment

T1 sequence (Q5S007 whole entry): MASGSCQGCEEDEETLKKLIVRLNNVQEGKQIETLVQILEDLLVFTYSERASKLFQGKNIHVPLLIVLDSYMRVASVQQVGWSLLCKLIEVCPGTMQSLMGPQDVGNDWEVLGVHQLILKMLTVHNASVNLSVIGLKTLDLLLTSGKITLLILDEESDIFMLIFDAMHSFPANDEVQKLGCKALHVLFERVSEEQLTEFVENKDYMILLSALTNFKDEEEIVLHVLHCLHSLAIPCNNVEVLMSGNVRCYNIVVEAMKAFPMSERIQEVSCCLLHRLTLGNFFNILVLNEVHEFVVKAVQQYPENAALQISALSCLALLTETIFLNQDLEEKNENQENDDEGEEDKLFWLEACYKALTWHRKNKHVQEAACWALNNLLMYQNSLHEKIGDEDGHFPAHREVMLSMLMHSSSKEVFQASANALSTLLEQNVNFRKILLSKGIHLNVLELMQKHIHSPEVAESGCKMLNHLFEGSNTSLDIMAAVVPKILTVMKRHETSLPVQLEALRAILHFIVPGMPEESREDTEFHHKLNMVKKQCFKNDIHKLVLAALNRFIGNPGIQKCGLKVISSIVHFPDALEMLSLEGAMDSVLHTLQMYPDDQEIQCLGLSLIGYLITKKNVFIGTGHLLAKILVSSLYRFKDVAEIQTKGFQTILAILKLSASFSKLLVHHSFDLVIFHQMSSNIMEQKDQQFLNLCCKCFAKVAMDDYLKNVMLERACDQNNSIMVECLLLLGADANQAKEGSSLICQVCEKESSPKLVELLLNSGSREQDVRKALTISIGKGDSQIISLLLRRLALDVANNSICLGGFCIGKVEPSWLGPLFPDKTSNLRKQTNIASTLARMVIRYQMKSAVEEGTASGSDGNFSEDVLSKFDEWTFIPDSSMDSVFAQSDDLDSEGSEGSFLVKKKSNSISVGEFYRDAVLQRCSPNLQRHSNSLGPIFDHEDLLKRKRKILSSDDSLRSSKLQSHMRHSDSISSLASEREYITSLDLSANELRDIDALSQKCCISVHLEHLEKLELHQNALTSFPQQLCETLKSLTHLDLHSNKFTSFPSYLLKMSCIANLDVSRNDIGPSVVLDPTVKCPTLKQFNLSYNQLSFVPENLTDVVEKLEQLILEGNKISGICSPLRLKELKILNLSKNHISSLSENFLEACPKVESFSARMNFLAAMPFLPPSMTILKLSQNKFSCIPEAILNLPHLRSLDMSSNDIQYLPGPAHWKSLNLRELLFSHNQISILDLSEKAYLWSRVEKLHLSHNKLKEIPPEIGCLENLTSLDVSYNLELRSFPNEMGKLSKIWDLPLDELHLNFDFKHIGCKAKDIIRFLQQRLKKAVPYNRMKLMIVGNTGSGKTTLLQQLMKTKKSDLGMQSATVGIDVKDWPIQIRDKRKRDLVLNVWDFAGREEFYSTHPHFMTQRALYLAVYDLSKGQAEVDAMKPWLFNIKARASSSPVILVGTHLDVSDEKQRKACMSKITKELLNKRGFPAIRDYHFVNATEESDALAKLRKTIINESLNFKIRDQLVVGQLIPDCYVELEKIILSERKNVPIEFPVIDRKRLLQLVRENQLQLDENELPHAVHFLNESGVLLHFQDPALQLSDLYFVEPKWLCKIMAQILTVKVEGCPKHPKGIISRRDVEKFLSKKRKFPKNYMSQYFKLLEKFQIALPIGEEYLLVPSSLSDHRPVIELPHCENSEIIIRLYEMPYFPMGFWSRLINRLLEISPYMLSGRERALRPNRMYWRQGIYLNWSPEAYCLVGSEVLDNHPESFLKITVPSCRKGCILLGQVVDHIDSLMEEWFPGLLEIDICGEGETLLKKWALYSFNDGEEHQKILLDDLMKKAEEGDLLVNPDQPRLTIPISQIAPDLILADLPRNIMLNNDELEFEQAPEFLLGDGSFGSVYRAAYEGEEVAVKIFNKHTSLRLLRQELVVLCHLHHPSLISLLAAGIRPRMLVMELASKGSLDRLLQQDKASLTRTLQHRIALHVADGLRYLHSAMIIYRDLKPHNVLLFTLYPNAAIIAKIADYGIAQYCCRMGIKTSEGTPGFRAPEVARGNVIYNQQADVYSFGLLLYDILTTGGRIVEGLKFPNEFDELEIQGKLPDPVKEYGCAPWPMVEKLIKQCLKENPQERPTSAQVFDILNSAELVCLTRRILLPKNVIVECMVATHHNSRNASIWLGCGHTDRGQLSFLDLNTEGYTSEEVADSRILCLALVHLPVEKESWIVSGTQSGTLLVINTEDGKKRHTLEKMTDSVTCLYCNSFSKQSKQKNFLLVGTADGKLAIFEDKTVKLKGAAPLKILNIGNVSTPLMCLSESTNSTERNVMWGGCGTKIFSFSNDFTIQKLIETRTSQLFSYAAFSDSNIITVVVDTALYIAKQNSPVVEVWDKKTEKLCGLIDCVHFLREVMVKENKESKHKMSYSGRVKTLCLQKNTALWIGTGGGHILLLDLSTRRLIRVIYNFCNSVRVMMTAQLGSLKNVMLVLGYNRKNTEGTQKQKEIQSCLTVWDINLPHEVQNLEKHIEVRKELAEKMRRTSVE

Row | Compound | DC50 [1] [nM] | Dmax [2] [%] | Dmax [4] [%] | DC50 [5] [nM] | WT LRRK2 **Dmax (%) [3] [%]
1 | Cn1c(=O)n(C2CCC(=O)NC2=O)c2ccc(N3CCC(OC4CCC(OC5CCN(c6cc(-c7n[nH]c8cnc(OC9(C)CC9)cc78)ncn6)CC5)CC4)CC3)cc21 (stereo not drawn) [Compound 25, rel-3-[3-methyl-2-oxo-5-(4-{[(1r,4r)-4-[(1-{6-[5-(1-methylcyclopropoxy)-1H-pyrazolo[3,4-c]pyridin-3-yl]pyrimidin-4-yl}piperidin-4-yl)oxy]cyclohexyl]oxy}piperidin-1-yl)-2,3-dihydro-1H-1,3-benzodiazol-1-yl]piperidine-2,6-dione] | 0.32 |  |  |  | 48
2 | CC(C)n1c(=O)n(C2CCC(=O)NC2=O)c2ccc(N3CCC(OC4CCC(OC5CCN(c6cc(-c7n[nH]c8cnc(OC9(C)CC9)cc78)ncn6)CC5)CC4)CC3)cc21 (stereo not drawn) [Compound 26, rel-3-[2-oxo-3-(propan-2-yl)-5-(4-{[(1r,4r)-4-[(1-{6-[5-(1-methylcyclopropoxy)-1H-pyrazolo[3,4-c]pyridin-3-yl]pyrimidin-4-yl}piperidin-4-yl)oxy]cyclohexyl]oxy}piperidin-1-yl)-2,3-dihydro-1H-1,3-benzodiazol-1-yl]piperidine-2,6-dione] | 1.1 |  |  |  | 69
3 | CC(C)Oc1cc2c(-c3cc(N4CCC(OC5CCC(OC6CCN(c7ccc8c(c7)n(C)c(=O)n8C7CCC(=O)NC7=O)CC6)CC5)CC4)ncn3)n[nH]c2cn1 (centres unmarked) [Compound 28] | 17 |  |  |  | 60
4 | CC1(Oc2ccc3[nH]nc(-c4cc(N5CCC(CN6CCN(CC7CCN(c8ccc9c(ncn9C9CCC(=O)NC9=O)c8F)CC7)CC6(C)C)CC5)ncn4)c3c2)CC1 (centres unmarked) [Compound 41, 3-{5-[4-({3,3-dimethyl-4-[(1-{6-[5-(1-methylcyclopropoxy)-1H-indazol-3-yl]pyrimidin-4-yl}piperidin-4-yl)methyl]piperazin-1-yl}methyl)piperidin-1-yl]-4-fluoro-1H-1,3-benzodiazol-1-yl}piperidine-2,6-dione] | 3.7 | 49 | 49 | 3.7 | 
5 | CC1(Oc2ccc3[nH]nc(-c4cc(N5CCN(C[C@H]6CC[C@H](OC7CCN(c8ccc9c(ncn9C9CCC(=O)NC9=O)c8F)CC7)CC6)CC5)ncn4)c3c2)CC1 (stereo partly drawn) [Compound 45, rel-3-[4-fluoro-5-(4-{[(1r,4r)-4-[(4-{6-[5-(1-methylcyclopropoxy)-1H-indazol-3-yl]pyrimidin-4-yl}piperazin-1-yl)methyl]cyclohexyl]oxy}piperidin-1-yl)-1H-1,3-benzodiazol-1-yl]piperidine-2,6-dione] | 3.9 | 56 | 56 | 3.9 | 

The next lines start with results.

Row | DC50 [1] [nM] | Dmax [2] [%] | Dmax [4] [%] | DC50 [5] [nM] | Compound | WT LRRK2 **Dmax (%) [3] [%]
6 | ≥ 1000 |  |  |  | Cn1c(=O)n(C2CCC(=O)NC2=O)c2cc(N3CCC(CN4CCN(CC5CCN(c6cc(-c7n[nH]c8ccc(OC9(C)CC9)cc78)ncn6)CC5)C(C)(C)C4)CC3)ccc21 (centres unmarked) [Compound 17, 3-{6-[4-({3,3-dimethyl-4-[(1-{6-[5-(1-methylcyclopropoxy)-1H-indazol-3-yl]pyrimidin-4-yl}piperidin-4-yl)methyl]piperazin-1-yl}methyl)piperidin-1-yl]-3-methyl-2-oxo-2,3-dihydro-1H-1,3-benzodiazol-1-yl}piperidine-2,6-dione] | 
7 | 3.9 | 74 |  |  | Cn1c(=O)n(C2CCC(=O)NC2=O)c2cccc(C#CCOC3CCN(CC4CCN(c5cc(-c6n[nH]c7ccc(OC8(C)CC8)cc67)ncn5)CC4)CC3)c21 (centres unmarked) [Compound 18, 3-{3-methyl-4-[3-({1-[(1-{6-[5-(1-methylcyclopropoxy)-1H-indazol-3-yl]pyrimidin-4-yl}piperidin-4-yl)methyl]piperidin-4-yl}oxy)prop-1-yn-1-yl]-2-oxo-2,3-dihydro-1H-1,3-benzodiazol-1-yl}piperidine-2,6-dione] | 
8 | 1.2 | 53 | 53 | 1.2 | Cc1nc2cc(N3CCC(CN4CCN(CC5CCN(c6cc(-c7n[nH]c8ccc(OC9(C)CC9)cc78)ncn6)CC5)C(C)(C)C4)CC3)ccc2n1C1CCC(=O)NC1=O (centres unmarked) [Compound 38, 3-{5-[4-({3,3-dimethyl-4-[(1-{6-[5-(1-methylcyclopropoxy)-1H-indazol-3-yl]pyrimidin-4-yl}piperidin-4-yl)methyl]piperazin-1-yl}methyl)piperidin-1-yl]-2-methyl-1H-1,3-benzodiazol-1-yl}piperidine-2,6-dione] | 
9 | 4.9 | 56 | 56 | 4.9 | CC1(Oc2ccc3[nH]nc(-c4cc(N5CCC(CN6CCN(CC7CCN(c8cc(F)c9c(c8)ncn9C8CCC(=O)NC8=O)CC7)CC6(C)C)CC5)ncn4)c3c2)CC1 (centres unmarked) [Compound 39, 3-{5-[4-({3,3-dimethyl-4-[(1-{6-[5-(1-methylcyclopropoxy)-1H-indazol-3-yl]pyrimidin-4-yl}piperidin-4-yl)methyl]piperazin-1-yl}methyl)piperidin-1-yl]-7-fluoro-1H-1,3-benzodiazol-1-yl}piperidine-2,6-dione] | 
10 | 4.2 | 59 | 59 | 4.2 | CC1(Oc2ccc3[nH]nc(-c4cc(N5CCC(CN6CCN(CC7CCN(c8cc9ncn(C%10CCC(=O)NC%10=O)c9cc8F)CC7)CC6(C)C)CC5)ncn4)c3c2)CC1 (centres unmarked) [Compound 40, 3-{5-[4-({3,3-dimethyl-4-[(1-{6-[5-(1-methylcyclopropoxy)-1H-indazol-3-yl]pyrimidin-4-yl}piperidin-4-yl)methyl]piperazin-1-yl}methyl)piperidin-1-yl]-6-fluoro-1H-1,3-benzodiazol-1-yl}piperidine-2,6-dione] | 
11 | 5.2 | 42 | 52 | 5.2 | Cc1nc2cc(N3CCC(O[C@H]4CC[C@H](CN5CCN(c6cc(-c7n[nH]c8ccc(OC9(C)CC9)cc78)ncn6)CC5)CC4)CC3)ccc2n1C1CCC(=O)NC1=O (stereo partly drawn) [Compound 42, rel-3-[2-methyl-5-(4-{[(1r,4r)-4-[(4-{6-[5-(1-methylcyclopropoxy)-1H-indazol-3-yl]pyrimidin-4-yl}piperazin-1-yl)methyl]cyclohexyl]oxy}piperidin-1-yl)-1H-1,3-benzodiazol-1-yl]piperidine-2,6-dione] | 
12 | 6.2 | 49 | 49 | 6.2 | CC1(Oc2ccc3[nH]nc(-c4cc(N5CCN(C[C@H]6CC[C@H](OC7CCN(c8cc(F)c9c(c8)ncn9C8CCC(=O)NC8=O)CC7)CC6)CC5)ncn4)c3c2)CC1 (stereo partly drawn) [Compound 43, rel-3-[7-fluoro-5-(4-{[(1r,4r)-4-[(4-{6-[5-(1-methylcyclopropoxy)-1H-indazol-3-yl]pyrimidin-4-yl}piperazin-1-yl)methyl]cyclohexyl]oxy}piperidin-1-yl)-1H-1,3-benzodiazol-1-yl]piperidine-2,6-dione] | 
13 | 6.3 | 50 | 50 | 6.3 | CC1(Oc2ccc3[nH]nc(-c4cc(N5CCN(C[C@H]6CC[C@H](OC7CCN(c8cc9ncn(C%10CCC(=O)NC%10=O)c9cc8F)CC7)CC6)CC5)ncn4)c3c2)CC1 (stereo partly drawn) [Compound 44, rel-3-[6-fluoro-5-(4-{[(1r,4r)-4-[(4-{6-[5-(1-methylcyclopropoxy)-1H-indazol-3-yl]pyrimidin-4-yl}piperazin-1-yl)methyl]cyclohexyl]oxy}piperidin-1-yl)-1H-1,3-benzodiazol-1-yl]piperidine-2,6-dione] | 
